Source: ChEMBL document CHEMBL1201862, “PubChem BioAssay data set” (2004)
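The compound was tested at five concentrations on cells cultured in 96-well plates, with a 48-hour exposure period. Abbreviation: GI50, concentration required for 50% inhibition of growth.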 Calls of active or inactive are those of the source. Rule as the data show it: active = GI50 up to about 1.1 µM and inactive = higher.

What was measured:
Experiment in all cases: NCI tumour cell line growth inhibition, 48 h
[1] = tested on: COLO 205
[2] = tested on: OVCAR-5
[3] = tested on: MDA-MB-231
[4] = tested on: SK-MEL-28
[5] = tested on: SF-539
[6] = tested on: 786-0
[7] = tested on: SF-295
[8] = tested on: OVCAR-4
[9] = tested on: UACC-257
[10] = tested on: HCT-15
[11] = tested on: HL-60
[12] = tested on: NCI-H460
[13] = tested on: NCI/ADR-RES
[14] = tested on: OVCAR-8
[15] = tested on: MOLT-4
[16] = tested on: HCC 2998
[17] = tested on: Hs-578T
[18] = tested on: Malme-3M
[19] = tested on: CAKI-1
[20] = tested on: K562
[21] = tested on: SK-OV-3
[22] = tested on: A549
[23] = tested on: NCI-H226
[24] = tested on: OVCAR-3
[25] = tested on: U-251
[26] = tested on: SK-MEL-2
[27] = tested on: KM12
[28] = tested on: PC-3
[29] = tested on: EKVX
[30] = tested on: M14
[31] = tested on: MCF7
[32] = tested on: SNB-19
[33] = tested on: RPMI-8226
[34] = tested on: SK-MEL-5
[35] = tested on: SN12C
[36] = tested on: TK-10
[37] = tested on: HCT-116
[38] = tested on: IGROV-1
[39] = tested on: T47D
[40] = tested on: NCI-H522
[41] = tested on: HOP-62
[42] = tested on: LOX IMVI
[43] = tested on: DU-145
[44] = tested on: A498
[45] = tested on: RXF 393
[46] = tested on: CCRF-CEM
[47] = tested on: SNB-75
[48] = tested on: MDA-MB-435
[49] = tested on: NCI-H23
[50] = tested on: ACHN
[51] = tested on: HT-29
[52] = tested on: MDA-N
[53] = tested on: UACC-62
[54] = tested on: SF-268
[55] = tested on: SW-620
[56] = tested on: UO-31
[57] = tested on: HOP-92

## O=C(Nc1ccc(S(=O)(=O)/N=c2\ncccn2C(=O)C(C(F)(F)F)C(F)(F)F)cc1)C(C(F)(F)F)C(F)(F)F
[1]
  GI50: > 100 µM (inactive)
[2]
  GI50: > 100 µM (inactive)
[3]
  GI50: > 100 µM (inactive)
[4]
  GI50: > 100 µM (inactive)
[5]
  GI50: > 100 µM (inactive)
[6]
  GI50: > 100 µM (inactive)
[7]
  GI50: > 100 µM (inactive)
[8]
  GI50: > 100 µM (inactive)
[9]
  GI50: > 100 µM (inactive)
[10]
  GI50: > 100 µM
[11]
  GI50: > 100 µM (inactive)
[12]
  GI50: > 100 µM (inactive)
[13]
  GI50: > 100 µM (inactive)
[14]
  GI50: > 100 µM (inactive)
[15]
  GI50: > 100 µM (inactive)
[16]
  GI50: > 100 µM (inactive)
[17]
  GI50: > 100 µM (inactive)
[18]
  GI50: 49.2 µM (inactive)
[19]
  GI50: 0.0368 µM (active)
[20]
  GI50: > 100 µM (inactive)
[21]
  GI50: > 100 µM (inactive)
[22]
  GI50: > 100 µM (inactive)
[23]
  GI50: > 100 µM (inactive)
[24]
  GI50: > 100 µM (inactive)
[25]
  GI50: > 100 µM (inactive)
[26]
  GI50: > 100 µM (inactive)
[27]
  GI50: > 100 µM (inactive)
[28]
  GI50: > 100 µM (inactive)
[29]
  GI50: > 100 µM (inactive)
[30]
  GI50: > 100 µM (inactive)
[31]
  GI50: > 100 µM (inactive)
[32]
  GI50: > 100 µM (inactive)
[33]
  GI50: > 100 µM (inactive)
[34]
  GI50: > 100 µM (inactive)
[35]
  GI50: > 100 µM (inactive)
[36]
  GI50: > 100 µM (inactive)
[37]
  GI50: > 100 µM (inactive)
[38]
  GI50: > 100 µM (inactive)
[39]
  GI50: > 100 µM (inactive)
[40]
  GI50: > 100 µM (inactive)
[41]
  GI50: > 100 µM (inactive)
[42]
  GI50: > 100 µM (inactive)
[43]
  GI50: > 100 µM (inactive)
[44]
  GI50: > 100 µM (inactive)
[45]
  GI50: > 100 µM (inactive)
[46]
  GI50: > 100 µM (inactive)
[47]
  GI50: 80.7 µM (inactive)
[48]
  GI50: > 100 µM (inactive)
[49]
  GI50: > 100 µM (inactive)
[50]
  GI50: > 100 µM (inactive)
[51]
  GI50: > 100 µM (inactive)
[52]
  GI50: > 100 µM (inactive)
[53]
  GI50: > 100 µM (inactive)
[54]
  GI50: > 100 µM (inactive)

## CCOC(=O)C1=CC(C)(C(=O)OCC)Nc2c(nc(OC)[nH]c2=O)N1 (stereo not drawn)
[1]
  GI50: > 10 µM (inactive)
[2]
  GI50: > 10 µM (inactive)
[3]
  GI50: > 10 µM (inactive)
[4]
  GI50: > 10 µM (inactive)
[5]
  GI50: > 10 µM (inactive)
[6]
  GI50: > 10 µM (inactive)
[7]
  GI50: > 10 µM (inactive)
[8]
  GI50: > 10 µM (inactive)
[9]
  GI50: > 10 µM (inactive)
[10]
  GI50: > 10 µM
[12]
  GI50: > 10 µM (inactive)
[13]
  GI50: > 10 µM (inactive)
[14]
  GI50: > 10 µM (inactive)
[15]
  GI50: > 10 µM (inactive)
[16]
  GI50: > 10 µM (inactive)
[17]
  GI50: > 10 µM (inactive)
[18]
  GI50: > 10 µM (inactive)
[19]
  GI50: > 10 µM (inactive)
[20]
  GI50: > 10 µM (inactive)
[21]
  GI50: > 10 µM (inactive)
[22]
  GI50: > 10 µM (inactive)
[23]
  GI50: > 10 µM (inactive)
[24]
  GI50: > 10 µM (inactive)
[25]
  GI50: > 10 µM (inactive)
[55]
  GI50: > 10 µM (inactive)
[26]
  GI50: > 10 µM (inactive)
[27]
  GI50: > 10 µM (inactive)
[28]
  GI50: > 10 µM (inactive)
[29]
  GI50: > 10 µM (inactive)
[30]
  GI50: > 10 µM (inactive)
[31]
  GI50: > 10 µM (inactive)
[32]
  GI50: > 10 µM (inactive)
[33]
  GI50: > 10 µM (inactive)
[34]
  GI50: > 10 µM (inactive)
[35]
  GI50: > 10 µM (inactive)
[36]
  GI50: > 10 µM (inactive)
[56]
  GI50: > 10 µM (inactive)
[37]
  GI50: > 10 µM (inactive)
[38]
  GI50: > 10 µM (inactive)
[57]
  GI50: > 10 µM (inactive)
[39]
  GI50: > 10 µM (inactive)
[40]
  GI50: > 10 µM (inactive)
[41]
  GI50: > 10 µM (inactive)
[42]
  GI50: > 10 µM (inactive)
[43]
  GI50: > 10 µM (inactive)
[44]
  GI50: > 10 µM (inactive)
[45]
  GI50: > 10 µM (inactive)
[46]
  GI50: > 10 µM (inactive)
[47]
  GI50: > 10 µM (inactive)
[49]
  GI50: > 10 µM (inactive)
[50]
  GI50: > 10 µM (inactive)
[51]
  GI50: > 10 µM (inactive)
[52]
  GI50: > 10 µM (inactive)
[54]
  GI50: > 10 µM (inactive)
